From patent US9694073B2, “Small molecule inhibitors of polynucleotide kinase/phosphatase, poly(ADP-ribose) polymerase and uses thereof” (THE GOVERNORS OF THE UNIVERSITY OF ALBERTA, priority 2009, dated 2017)
“Also recorded” adds a separate entry of the source.

Columns and labels:
[1] = target: T1, human PNKP (hPNKP) 3'-phosphatase activity (Homo sapiens, UniProt Q96T60); assay: Fluorescence quenching-based screening assay for PNKP 3'-phosphatase activity; format: biochemical; settings: 100 μM compound, 50 ng hPNKP
T1 construct: made in house; host or cells: bacteria (said only for the batch compared with aprataxin)
Method: The […] assay developed originally for protein kinases by QTL Biosystems (Santa Fe, N. Mex.) was modified. […] The TAMRA-labelled oligonucleotide lacking a 3'-phosphate served as a control. […] The assay was performed in 384-well white Optiplate microplates (PerkinElmer, Woodbridge, ON) in 70 mM Tris-HCl, pH 7.4, 60 mM MgCl2, 5 mM MnCl2, 0.3% BSA, 0.09% sodium azide. Reaction buffer was prepared by adding 1 mM DTT immediately prior to use. Five μL of 3'-phosphatase substrate (final concentration 0.5 μM) was used per well. In duplicate, 10 μl of each concentration of hPNKP was added per well. Plates were incubated for 1 hour at 37° C. and then 15 μl of 1× sensor solution (provided by QTL) was added to each well and incubated for 30 minutes at room temperature. Fluorescence (485 nm excitation and 520 nm emission wavelengths) of each well was read in a FLUOstar Optima® (BMG Labtech Inc, Durham, N.C.). Data were analyzed using GraphPad Prism® Software (San Diego, Calif.). […] Small molecules were provided in powder form and were dissolved in 100% DMSO and a final concentration of 100 μM was added to each well and assays were performed as described above. After obtaining an optimum calibration curve and enzyme concentration curve, a simplified form of the assay to test the library in a short time, was employed. One concentration of hPNKP, 50 ng, was tested and compared with the control well with no enzyme. The assay was conducted in the same way as described above with respect to oligonucleotides, buffer, controls, incubation lengths/temperatures, centrifugations and sensor addition. The fluorescence-based phosphatase assay adapted was originally developed to monitor protein phosphatase activity (34). This assay involves a fluorescent sensor molecule coated in trivalent metal cations which causes superquenching of the sensor signal when in close proximity to a dye (TAMRA) on the substrate. The sensor is brought close to TAMRA via the ionic bond formed between the terminal DNA phosphate and the trivalent metal cations on the sensor. Removal of the phosphate leads to an elevation of fluorescence because the sensor is not brought close enough to TAMRA for its signal to be quenched. […] Heat inactivated hPNKP was used as a control.

A549 cells = assay: Radiosensitization, clonogenic assay; format: cell-based, human; settings: 1 μM, 2 hours before irradiation and 24 hours after
Method: (§1) The effect of hPNKP inhibition by A12B4C3 on cellular survival following exposure to ionizing radiation was measured in A549, A549δPNKP and MDA-MB-231 and MDA-MB-231δPNKP cells by clonogenic assays. Cells were seeded on 60-mm tissue culture plates at various concentrations to give between about 100-1000 colonies per plate and returned to the incubator overnight to allow the cells to attach. For radiosensitization studies, the cells were incubated with or without 1 μM A12B4C3 for 2 hours before irradiation and then exposed to increasing doses of γ-radiation (^60Co Gammacell; Atomic Energy of Canada Limited, Ottawa). After irradiation, cells were incubated for a further 24 hours in the same media and then washed twice with phosphate-buffered saline (PBS) and incubated in fresh media without the inhibitor. Colonies were stained with crystal violet after 10 to 14 days and counted with an automated Colcount colony counter (Oxford Optronix, Oxford, UK).
(§2) The capacity of A12B4C3 to act as a radiosensitizer was then examined. A549 cells were incubated with 1 μM A12B4C3 for 2 hours prior to irradiation and then maintained in the presence of the compound for a further 24 hours. […] This radiation response was nearly identical to that seen with cells depleted of PNKP by stable expression of shRNA (A549δPNKP).

[2] = system: A549δPNKP cells (PNKP-depleted); assay: Radiosensitization, clonogenic assay; format: cell-based, human; settings: 1 μM
Method: as §1, §2

PP-1cγ = target: T2, PP-1cγ (Homo sapiens, UniProt P36873); assay: PP-1cγ pNPP phosphatase assay; format: biochemical; settings: concentration as high as 83.3 μM
T2 construct: made in house; host or cells: E. coli
Method: PP-1cγ and calcineurin activity was analyzed, using a colorimetric p-nitrophenol phosphate (pNPP) assay as previously described (33). The reaction were carried out in a 96-well microplate with a final volume of 60 μl containing 40 μl of pNPP assay buffer (50 mM Tris, pH 7.4, 0.1 mM EDTA, 30 mM MgCl2, 0.5 mM MnCl2, 1 mg/ml BSA, 0.2% β-mercaptoethanol), 0.03 μg PP-1cγ (specific activity>30 units per mg) or a catalytically equivalent quantity of calcineurin and 10 μl of 0.5 mM DNA 3′-phosphatase inhibitor sample in DMSO or 10 μl of 50 μM A12B4C3 sample in DMSO, or control solvent. After a 10-minute incubation at 37° C., 10 μl of 30 mM pNPP was added to each well and incubated for an additional of 60 minutes and 45 minutes for PP-1cγ and calcineurin, respectively.

T2 sequence (P36873 whole entry): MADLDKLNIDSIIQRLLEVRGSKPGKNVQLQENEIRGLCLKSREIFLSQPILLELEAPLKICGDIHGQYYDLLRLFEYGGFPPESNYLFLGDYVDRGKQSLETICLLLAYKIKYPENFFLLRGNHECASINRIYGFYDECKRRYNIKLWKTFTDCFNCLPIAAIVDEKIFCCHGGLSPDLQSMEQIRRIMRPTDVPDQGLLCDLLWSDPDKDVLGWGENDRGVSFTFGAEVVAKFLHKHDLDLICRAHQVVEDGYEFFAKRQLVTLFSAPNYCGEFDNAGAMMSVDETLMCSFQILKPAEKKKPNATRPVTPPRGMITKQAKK

## CCCCCCCCCCC(O)C1C=CC2C(=O)N(c3ccccc3)C(=O)C2N1Nc1ccc([N+](=O)[O-])cc1 (stereo not shown) [Compound A12B4C3, 2-(1-hydroxyundecyl)-1-(4-nitrophenylamino)-6-phenyl-6,7a-dihydro-1H-pyrrolo[3,4-b]pyridine-5,7(2H,4aH)-dione]
[1]
  inhibition of hPNKP phosphatase activity (substrate dephosphorylation) in the screening assay: significant inhibition; also recorded: marked inhibition
A549 cells
  radiosensitization (γ-radiation survival curves): almost doubled the radiosensitivity
[2]
  radiosensitization (γ-radiation survival curves): failed to sensitize
PP-1cγ
  inhibition of PP-1γ: Neither enzyme displayed inhibition; also recorded: no inhibition
